Source: patent publication US11034685B2, “Aminopyridine derivatives as TAM family kinase inhibitors” (SignalChem Lifesciences Corporation, priority 2013, dated 2021)

Assays:
Assay type in all cases: biochemical
[1] = target: T1, Recombinant human Tyro3 (455-end) (Homo sapiens, UniProt Q06418); experiment: Kinase enzymatic activity assay ([33P]-ATP phosphate transfer), Tyro3; conditions: inhibitory activity on Tyro3; class symbols
T1 construct: GST (N); made in house; host or cells: Sf9 insect cells (baculovirus)
T1 sequence (Q06418 455-890 limits assumed): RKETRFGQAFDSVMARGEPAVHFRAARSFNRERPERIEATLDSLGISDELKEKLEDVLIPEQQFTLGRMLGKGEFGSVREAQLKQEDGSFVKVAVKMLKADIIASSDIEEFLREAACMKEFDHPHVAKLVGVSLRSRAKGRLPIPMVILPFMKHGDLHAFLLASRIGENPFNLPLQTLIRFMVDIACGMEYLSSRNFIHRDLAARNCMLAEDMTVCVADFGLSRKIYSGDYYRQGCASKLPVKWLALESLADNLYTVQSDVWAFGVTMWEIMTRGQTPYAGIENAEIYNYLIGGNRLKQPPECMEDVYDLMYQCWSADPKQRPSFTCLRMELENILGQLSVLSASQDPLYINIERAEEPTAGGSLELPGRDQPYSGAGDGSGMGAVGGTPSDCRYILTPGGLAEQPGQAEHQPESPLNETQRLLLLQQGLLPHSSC
Procedure: (§1) Preparation of Active Recombinant Kinase Proteins:
(§2) Recombinant human Tyro3 (455-end, the gene accession number NM_006293), human Axl (473-end, the gene accession number NM_021913) and human Mer (578-872, the gene accession number NM_006343) were independently expressed by baculovirus in Sf9 insect cells using an N-terminal GST tag. The recombinant proteins were stored at −70° C. in a medium containing 50 mM Tris-HCl, pH 7.5, 150 mM NaCl, 10 mM glutathione, 0.1 mM EDTA, 0.25 mM DTT, 0.1 mM PMSF and 25% glycerol. The recombinant proteins were aliquoted into smaller quantities after centrifugation to avoid repeated handling and multiple freeze/thaw cycles for the most favorable performance.
(§3) Preparation of Assay Reagents:
(§4) Kinase Assay Buffer: This buffer solution consisted of the following components: 25 mM MOPS, pH 7.2, 12.5 mM β-glycerol-phosphate, 25 mM MgCl2, 5 mM EGTA, 2 mM EDTA and DTT 0.25 mM which was added prior to use.
(§5) Kinase Dilution Buffer: Kinase Assay Buffer was diluted at a 1:4 ratio (5× dilution) with distilled water.
(§6) [^33P]-ATP assay cocktail: In a designated radioactive working area, a 250 μM [^33P]-ATP assay cocktail was prepared by the addition of the following components: 150 μL of 10 mM ATP stock solution, 100 μL [^33P]-ATP (1 mci/100 μL), 5.75 mL of kinase assay buffer. This solution was stored in 1 mL aliquots at −20 OC.
(§7) ATP stock solution (10 mM): The ATP stock solution was prepared by dissolving 55 mg of ATP in 10 mL of kinase assay buffer. It was stored in 200 μL aliquots at −20° C.
(§8) Active Kinase Stock Solution: The active recombinant kinase protein (0.1 μg/μL) was diluted with Kinase Dilution Buffer and the activity was assayed using a serial dilution method. The specific activity is expressed in nmoL/min/mg.
(§9) Substrates: poly(4:1 glu:tyr) is the substrate used for each kinase Tyro3, Axl and Mer: The peptide substrate was dissolved in water to give the final concentration of 1 mg/mL.
(§10) Test compound solution: Test compound was dissolved in DMSO to obtain a 10 mM solution. The assay solution was prepared by adding 5 μL of this solution to […] of 10% DMSO/water to obtain the final concentration of 50 μM.
(§11) The enzymatic activity of all three kinases was determined as follows. Using a 96-well plate, the wells were divided into three categories: Blank wells, […] and Test wells. In Test wells, 5 μL of the test compound solution and 5 μL of the substrate solution were added. In Control wells, 5 μL of 10% DMSO/water and 5 μL of the substrate solution were added. In Blank wells, 10 μL of 10% DMSO/water was added. To each well was added 10 μL of Active Kinase Stock Solution to make up the volume in each well to 20 μL. All test samples, controls and blanks were run in duplicate. The reaction was initiated by the addition of 5 μL of [^33P]-ATP assay cocktail, bringing the final volume up to 25 μL in every well. The mixture was incubated at room temperature for 30 minutes. The reaction was terminated by transferring 10 μL of the reaction mixture into a Millipore MultiScreen filter plate (cat. number MSPHN6B50). The filter plate was washed in a 1% phosphoric acid solution with constant gentle shaking for 15 minutes and this step was repeated once. After the plate was dried in air, scintillation fluid was added to each well and the radioactivity in each well in CPM was counted by a Microbeta TriLux. The corrected CPM in each test well was determined by subtracting the average value of Blank well values. Percentage of inhibition of the kinase enzymatic activity by the test compound was determined using the following formula: […]
(§12) The IC50 values were determined in a similar way following a serial dilution of the test compound. The percentage of inhibition at each concentration was calculated following the above formula. The IC50 was estimated from the curve of % Inhibition against Concentration in log unit using Prism 5, version 5.01.

[2] = target: T2, human Axl (473-end) (Homo sapiens, UniProt P30530); experiment: Kinase enzymatic activity assay ([33P]-ATP phosphate transfer), Axl; conditions: inhibitory activity on Axl; class symbols
T2 construct: GST (N); made in house; host or cells: Sf9 insect cells (baculovirus)
T2 sequence (P30530 473-894 limits assumed): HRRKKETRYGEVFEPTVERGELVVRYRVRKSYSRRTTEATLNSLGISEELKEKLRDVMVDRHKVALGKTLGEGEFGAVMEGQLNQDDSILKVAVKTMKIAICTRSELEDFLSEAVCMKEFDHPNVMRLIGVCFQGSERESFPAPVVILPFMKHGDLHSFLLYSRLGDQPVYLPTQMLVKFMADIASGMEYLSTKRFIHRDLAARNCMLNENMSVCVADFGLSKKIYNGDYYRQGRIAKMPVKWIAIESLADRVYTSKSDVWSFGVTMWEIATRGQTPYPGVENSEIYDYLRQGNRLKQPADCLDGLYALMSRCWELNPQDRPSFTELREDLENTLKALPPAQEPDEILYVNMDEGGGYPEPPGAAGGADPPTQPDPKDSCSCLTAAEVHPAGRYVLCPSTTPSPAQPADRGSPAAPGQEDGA
Procedure: as §1, §2, §3, §4, §5, §6, §7, §8, §9, §10, §11, §12

[3] = target: T3, human Mer (578-872) (Homo sapiens, UniProt Q12866); experiment: Kinase enzymatic activity assay ([33P]-ATP phosphate transfer), Mer; conditions: inhibitory activity on Mer; class symbols
T3 construct: GST (N); made in house; host or cells: Sf9 insect cells (baculovirus)
T3 sequence (Q12866 578-872): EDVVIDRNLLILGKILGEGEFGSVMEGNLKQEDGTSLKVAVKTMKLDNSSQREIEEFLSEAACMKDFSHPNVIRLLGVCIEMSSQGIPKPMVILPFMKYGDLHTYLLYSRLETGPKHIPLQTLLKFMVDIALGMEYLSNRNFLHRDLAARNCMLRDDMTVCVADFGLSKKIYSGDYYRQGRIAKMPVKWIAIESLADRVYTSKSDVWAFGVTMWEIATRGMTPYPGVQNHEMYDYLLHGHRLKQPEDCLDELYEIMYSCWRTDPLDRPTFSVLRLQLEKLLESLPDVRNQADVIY
Procedure: as §1, §2, §3, §4, §5, §6, §7, §8, §9, §10, §11, §12

Row | SMILES | IC50 [1] | IC50 [2] | IC50 [3]
1 | CC(C)CCC(=O)N1CCC(n2cc(-c3cnc(N)c(-c4nnc(-c5c(Cl)cccc5Cl)o4)c3)cn2)CC1 [1-(4-(4-(6-amino-5-(5-(2,6-dichlorophenyl)-1,3,4-oxadiazol-2-yl)pyridin-3-yl)-1H-pyrazol-1-yl)piperidin-1-yl)-4-methylpentan-1-one] | 500 to 1000 nM | < 500 nM | < 500 nM
2 | CC(=O)N1CCC(n2cc(-c3cnc(N)c(-c4nc(-c5ccccc5)no4)c3)cn2)CC1 [1-(4-(4-(6-amino-5-(3-phenyl-1,2,4-oxadiazol-5-yl)pyridin-3-yl)-1H-pyrazol-1-yl)piperidin-1-yl)ethanone] | < 500 nM | < 500 nM | < 500 nM
3 | Nc1ncc(-c2cnn(C3CCNCC3)c2)cc1-c1nnc(-c2nccs2)o1 [5-(1-(piperidin-4-yl)-1H-pyrazol-4-yl)-3-(5-(thiazol-2-yl)-1,3,4-oxadiazol-2-yl)pyridin-2-amine] | < 500 nM | < 500 nM | < 500 nM
4 | Nc1ncc(-c2cnn(C3CCNCC3)c2)cc1-c1nnc(C2CCCCC2)o1 | < 500 nM | < 500 nM | < 500 nM
5 | Nc1ncc(-c2cnn(C3CCNCC3)c2)cc1-c1nnc(-c2c(Cl)cccc2Cl)o1 [3-(5-(2,6-dichlorophenyl)-1,3,4-oxadiazol-2-yl)-5-(1-(piperidin-4-yl)-1H-pyrazol-4-yl)pyridin-2-amine] | < 500 nM | < 500 nM | 
6 | CCCCCCCCCCCCN1CCC(n2cc(-c3cnc(N)c(-c4nc(-c5c(Cl)cccc5Cl)no4)c3)cn2)CC1 [3-(3-(2,6-dichlorophenyl)-1,2,4-oxadiazol-5-yl)-5-(1-(1-dodecylpiperidin-4-yl)-1H-pyrazol-4-yl)pyridin-2-amine] | < 500 nM | 1000 to 10000 nM | < 500 nM
7 | Nc1ncc(-c2cnn(C3CCNCC3)c2)cc1-c1nc(-c2ccccc2)no1 [3-(3-phenyl-1,2,4-oxadiazol-5-yl)-5-(1-(piperidin-4-yl)-1H-pyrazol-4-yl)pyridin-2-amine] | < 500 nM | < 500 nM | < 500 nM
8 | Nc1ncc(-c2cnn(C3CCN(C(=O)c4ccccc4)CC3)c2)cc1-c1nnc(-c2c(Cl)cccc2Cl)o1 [(4-(4-(6-amino-5-(5-(2,6-dichlorophenyl)-1,3,4-oxadiazol-2-yl)pyridin-3-yl)-1H-pyrazol-1-yl)piperidin-1-yl)(phenyl)methanone] | < 500 nM | < 500 nM | < 500 nM
9 | CC(C)(C)OC(=O)N1CCC(n2cc(-c3cnc(N)c(-c4nnc(CC5CC5)o4)c3)cn2)CC1 [tert-butyl 4-(4-(6-amino-5-(5-(cyclopropylmethyl)-1,3,4-oxadiazol-2-yl)pyridin-3-yl)-1H-pyrazol-1-yl)piperidine-1-carboxylate] | 1000 to 10000 nM | < 500 nM | 500 to 1000 nM
10 | CCCCCCCCCCCCN1CCC(n2cc(-c3cnc(N)c(-c4nnc(-c5c(Cl)cccc5Cl)o4)c3)cn2)CC1 [3-(5-(2,6-dichlorophenyl)-1,3,4-oxadiazol-2-yl)-5-(1-(1-dodecylpiperidin-4-yl)-1H-pyrazol-4-yl)pyridin-2-amine] | 500 to 1000 nM | 1000 to 10000 nM | 1000 to 10000 nM
11 | Nc1ncc(-c2cnn(C3CCNCC3)c2)cc1-c1nnc(CC2CC2)o1 [3-(5-(cyclopropylmethyl)-1,3,4-oxadiazol-2-yl)-5-(1-(piperidin-4-yl)-1H-pyrazol-4-yl)pyridin-2-amine] | < 500 nM | < 500 nM | < 500 nM
12 | Nc1ncc(-c2cn[nH]c2)cc1-c1nnc(-c2cc(F)ccc2F)o1 [3-(5-(2,5-difluorophenyl)-1,3,4-oxadiazol-2-yl)-5-(1H-pyrazol-4-yl)pyridin-2-amine] | < 500 nM | < 500 nM | 1000 to 10000 nM
13 | Nc1ncc(-c2cnn(C3CCCCC3)c2)cc1-c1noc(-c2ccccc2)n1 [5-(1-cyclohexyl-1H-pyrazol-4-yl)-3-(5-phenyl-1,2,4-oxadiazol-3-yl)pyridin-2-amine] | > 10000 nM | > 10000 nM | > 10000 nM
14 | Nc1ncc(-c2cnn(C3CCCCC3)c2)cc1-c1nnc(-c2c(Cl)cccc2Cl)o1 [5-(1-cyclohexyl-1H-pyrazol-4-yl)-3-(5-(2,6-dichlorophenyl)-1,3,4-oxadiazol-2-yl)pyridin-2-amine] | > 10000 nM | > 10000 nM | > 10000 nM
15 | Nc1ncc(-c2cnn(C3CCN(C(=O)c4ccccc4)CC3)c2)cc1-c1nc(-c2ccccc2)no1 [(4-(4-(6-amino-5-(3-phenyl-1,2,4-oxadiazol-5-yl)pyridin-3-yl)-1H-pyrazol-1-yl)piperidin-1-yl)(phenyl)methanone] | 1000 to 10000 nM | 1000 to 10000 nM | 1000 to 10000 nM
16 | CC(C)(C)OC(=O)N1CCC(n2cc(-c3cnc(N)c(-c4nnc(-c5c(Cl)cccc5Cl)o4)c3)cn2)CC1 [tert-butyl 4-(4-(6-amino-5-(5-(2,6-dichlorophenyl)-1,3,4-oxadiazol-2-yl)pyridin-3-yl)-1H-pyrazol-1-yl)piperidine-1-carboxylate] | 1000 to 10000 nM | 500 to 1000 nM | 
17 | Nc1ncc(-c2cnn(C3CCNCC3)c2)cc1-c1nnc(-c2cc(F)ccc2F)o1 [3-(5-(2,5-difluorophenyl)-1,3,4-oxadiazol-2-yl)-5-(1-(piperidin-4-yl)-1H-pyrazol-4-yl)pyridin-2-amine] | < 500 nM | < 500 nM | 
